The source of these data is patent US12728120B2, “Prevention or treatment of brain disease and adverse effects of cholinesterase inhibitors” (DR. NOAH BIOTECH INC., priority 2021, dated 2026).

Assay [1] concerns ReN VM-immortalized cells, human neural progenitor cell line. Nature of the assay: HB9 motor neuron marker expression in neural progenitor cells (differentiation). It is filed as cell-based. The conditions noted are these: alone or combined, 3 days. The method, then: ReN VM-immortalized cells, human neural progenitor cell line, were used (EMD Millipore, SCC008). These neural progenitor cells can differentiate into motor neurons and glial cells. The degree of differentiation of neural progenitor cells into motor neurons was determined by analysing the level of HB9, a specific motor neuron marker. ReN VM cells were cultured on laminin (Corning, 354232)-coated 75T Flask in the growth medium, which is DMEM/F12 (Welgene, #LM002-08) supplemented with 20 ng/ml basic fibroblast growth factor (bFGF; Gibco, 15750-060), 20 ng/ml epidermal growth factor (EGF; Sigma, E9644), serum-free B27 (Gibco, 17504-044), 10 KU heparin (Sigma, H3393), and 1% gentamicin (Gibco, 17504-044). Cells were plated in 96-well plates at 7000 cells/well in the growth media in a 37° C./5% CO2 incubator for 3 days. […] Immunostaining was performed against HB9, a specific motor neuronal marker, to assess the population of motor neurons. Briefly, drug-treated ReN VM cells were fixed in 10% formalin solution for 20 minutes and permeabilized in 0.1% TritonX-100. […] Fluorescence intensity levels were measured using an Odyssey® DLx Infrared Imaging System (LI-COR, CLS-2383). All data were analyzed using the GraphPad Prism 9 software. Statistical significance was assessed using a one-way ANOVA or two-way ANOVA followed by Dunnett's post-hoc analysis unless otherwise noted. […]

Assay [2] has as its system cerebral infarction-reperfusion model in Sprague-Dawley rats. In words: Rotarod test in MCAO-reperfusion stroke model. The format is in vivo. The settings on record: for Rotarod score (fall latency normalized to day 1), mean value: I.V. daily, FIG. 15. The method, then:
The Rotarod test was performed on the 1, 3, 7, 14, and 21 days after 45 minutes-MCAO (middle cerebral artery occlusion)-reperfusion modelling to induced ischemia (Brain Stroke). […] The animal was carefully placed on a rotating rod (JD-A-07RA5, BS Technolab Inc., Korea) and the time (second) that animal was fallen was measured. The speed of rotating rod was increased from 4 rpm to 40 rpm for 300 second. […] For rotarod latency test, Nested one-way ANOVA and Two-way ANOVA was used to analyze significance between the groups on each day. Statistical analysis was performed using Prism 9 (GraphPad Software Inc., San Diego, CA, USA) and statistical significance was set at a P-value of less than 0.05.
For orientation: In the rotarod test animals must keep their balance on a rotating rod.

A further assay has as its system PI3K-AKT pathway. Nature of the assay: pAKT expression in brain (western blot), MCAO-reperfusion model. The format is in vivo, Sprague-Dawley rats. The procedure:
At 21 days after 45-minutes-MCAO-reperfusion modeling, brains were collected to perform a western blot assay. Brains were homogenized in lysate buffer with protease inhibitor cocktail on ice. Each sample was centrifuged at 13,000 rpm and 4° C. for 30 minutes and the supernatant was used for further experiments. Protein concentration was measured using DC (Bio-rad, #5000112) protein assay. Samples were loaded using the SDS-PAGE system (Bio-rad, #1658004 and #1645052) and transferred onto nitrocellulose membranes (Bio-rad, #17001917 and #1704272). The membranes were blocked for 1 hour at room temperature with Tris-buffered saline-Tween20 (TBS-T) containing 5% skim milk and then incubated with pAKT antibody (Cell signaling, #4060), AKT primary antibody (Santacruz, SC-81434), EPO primary antibody (SCBT, SC-5290), ERK (CST, #9102), pERK (CST, #9101) and GAPDH (Bioworld, #MBOO1H) in 5% skim milk overnight at 4° C. Next day, the membranes were washed 3 times in TBS-T for 5 minutes, incubated with horseradish peroxidase-conjugated (HRP-conjugated) secondary antibody or fluorescence conjugated secondary antibody for 1-2 hours, and then washed 3 times in TBS-T for 5 minutes again. After final wash, the membranes were developed for chemiluminescence or fluorescence system. The signals of chemiluminescence or fluorescence were acquired and quantified by using ECL solution (Bio-rad, #1705062), iBright 1500 (Invitrogen, #CL1500), and Odyssey CLx (LI-COR, #CLX-2383) imaging system.
In general terms: Immunoblotting shows a protein as a band on a membrane.

Consider `CC(=O)N[C@@H](CS)C(=O)O` [NAC, N-acetylcysteine], for which the “HB9 expression level, mean value relative to CTL (100%)” value in assay [1] (donepezil 0.1 μM, NAC 12 μM, FIG. 9A) was found to be 116.9%; in assay [1] (donepezil 1 μM, NAC 120 μM, FIG. 9B), 125.36%. The figures for the “Rotarod score normalized to VEH (100%)” value in assay [2] (day 3 after MCAO), in assay [2] (day 14 after MCAO) and in assay [2] (day 21 after MCAO) were 139.30%, 83.86% and 44.96%, respectively. Moreover, the “Rotarod score (fall latency normalized to day 1), mean value” in assay [2] (day 3 after MCAO) was 23.39; in assay [2] (day 7 after MCAO), 38.01; in assay [2] (day 14 after MCAO), 40.65; in assay [2] (day 21 after MCAO) it was 28.67. In addition, the “activation of the PI3K-AKT pathway” value in the assay with PI3K-AKT pathway (1 mpk donepezil HCl or 120 mpk NAC used alone, FIG. 17) is given as “did not activate”. Further, in the assay on PI3K-AKT pathway (brain, 21 days after MCAO, 1 mpk donepezil HCl, 120 mpk NAC, alone or combined), the “pAKT expression normalized to VEH (100%)” value was 55.88%. For the same compound, in the assay with PI3K-AKT pathway (brain, 21 days after MCAO, 1 mpk donepezil HCl, 120 mpk NAC, alone or combined, FIG. 17A), the “pAKT expression, mean value” turned out to be 44.23.
